{
  "source": "patent US8609727B2",
  "about": "“Dicarboxylic acid derivatives and their use” (Bayer Intellectual Property GmbH, priority 2005, dated 2013)",
  "key": {"saphenous artery rings": {"system": "saphenous artery rings", "experiment": "Vasorelaxant effect in vitro (phenylephrine-contracted artery rings)", "format": "cell-based, Rabbits", "conditions": "rabbit saphenous artery rings, contraction induced by phenylephrine", "method": "B-1. Vasorelaxant Effect In Vitro:\nRabbits are anaesthetized and sacrificed by intravenous injection of thiopental sodium (about 50 mg/kg) and exsanguinated. The saphenous artery is removed and divided into rings 3 mm wide. The rings are mounted singly on in each case a pair of triangular hooks open at the end and made of 0.3 mm-thick special wire (Remanium®). Each ring is placed under an initial tension in 5 ml organ baths with Krebs-Henseleit solution which is at 37° C., is gassed with 95% O2/5% CO2 and has the following composition: NaCl 119 mM; KCl 4.8 mM; CaCl2×2H2O 1 mM; MgSO4×7H2O 1.4 mM; KH2PO4 1.2 mM; NaHCO3 25 mM; glucose 10 mM; bovine serum albumin 0.001%. The force of contraction is detected with Statham UC2 cells, amplified and digitized via A/D converters (DAS-1802 HC, Keithley Instruments, Munich) and recorded in parallel on chart recorders. Contractions are induced by addition of phenylephrine.\nAfter several (generally 4) control cycles, the substance to be investigated is added in each further run in increasing dosage, and the height of the contraction achieved under the influence of the test substance is compared with the height of the contraction reached in the last preceding run. The concentration necessary to reduce the contraction reached in the preceding control by 50% is calculated from this (IC50). The standard application volume is 5 μl. The proportion of DMSO in the bath solution corresponds to 0.1%."}, "[1]": {"biological_target": "T1, Haem-free sGC (recombinant soluble guanylate cyclase) (Rattus norvegicus, UniProt P20595)", "T1 construct": "made in house; host or cells: Sf9 insect cells (baculovirus)", "T1 sequence (P20595 1-619)": "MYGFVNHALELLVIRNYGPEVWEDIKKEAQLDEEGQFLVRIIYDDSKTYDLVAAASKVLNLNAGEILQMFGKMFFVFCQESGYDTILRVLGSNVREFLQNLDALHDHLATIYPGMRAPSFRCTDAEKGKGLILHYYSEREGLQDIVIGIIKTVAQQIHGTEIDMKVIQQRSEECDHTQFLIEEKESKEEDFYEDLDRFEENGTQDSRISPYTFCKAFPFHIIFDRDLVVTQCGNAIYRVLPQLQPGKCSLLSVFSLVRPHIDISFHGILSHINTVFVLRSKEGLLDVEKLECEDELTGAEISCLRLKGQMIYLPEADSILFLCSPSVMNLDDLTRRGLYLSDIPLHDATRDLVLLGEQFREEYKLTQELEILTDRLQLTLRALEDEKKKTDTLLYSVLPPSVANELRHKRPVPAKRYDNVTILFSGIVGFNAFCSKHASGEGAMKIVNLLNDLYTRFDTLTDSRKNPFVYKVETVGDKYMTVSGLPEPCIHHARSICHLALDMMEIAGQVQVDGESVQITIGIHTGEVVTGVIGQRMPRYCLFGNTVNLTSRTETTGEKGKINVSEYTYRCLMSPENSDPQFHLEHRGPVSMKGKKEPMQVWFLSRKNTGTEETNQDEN", "T1 sequence (P19686 1-690 partner)": "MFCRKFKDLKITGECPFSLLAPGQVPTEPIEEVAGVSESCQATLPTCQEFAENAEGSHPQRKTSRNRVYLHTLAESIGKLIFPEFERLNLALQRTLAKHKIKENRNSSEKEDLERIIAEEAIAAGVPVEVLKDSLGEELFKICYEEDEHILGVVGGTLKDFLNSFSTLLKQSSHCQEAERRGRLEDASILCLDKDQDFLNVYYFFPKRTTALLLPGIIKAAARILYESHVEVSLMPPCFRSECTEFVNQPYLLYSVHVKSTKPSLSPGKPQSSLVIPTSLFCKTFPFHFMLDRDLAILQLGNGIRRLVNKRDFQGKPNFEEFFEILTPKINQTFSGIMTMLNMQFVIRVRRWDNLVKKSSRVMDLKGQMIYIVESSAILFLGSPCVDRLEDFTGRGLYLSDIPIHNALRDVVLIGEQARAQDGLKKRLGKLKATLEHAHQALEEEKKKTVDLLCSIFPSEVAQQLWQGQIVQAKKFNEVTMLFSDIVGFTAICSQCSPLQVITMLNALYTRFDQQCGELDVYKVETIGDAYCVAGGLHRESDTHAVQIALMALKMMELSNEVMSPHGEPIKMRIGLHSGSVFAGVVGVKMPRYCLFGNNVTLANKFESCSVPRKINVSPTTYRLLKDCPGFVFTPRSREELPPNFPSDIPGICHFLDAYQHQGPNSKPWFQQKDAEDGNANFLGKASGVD", "experiment": "Stimulation of recombinant soluble guanylate cyclase (sGC) in vitro, haem-free enzyme", "format": "biochemical", "method": "(§1) B-2. Stimulation of Recombinant Soluble Guanylate Cyclase (sGC) In Vitro:\nInvestigations on the stimulation of recombinant soluble guanylate cyclase (sGC) by the compounds according to the invention with and without sodium nitroprusside, and with and without the haem-dependent sGC inhibitor 1H-1,2,4-oxadiazole-(4,3a)-quinoxalin-1-one (ODQ) are carried out by the method described in detail in the following reference: M. Hoenicka, E. M. Becker, H. Apeler, T. Sirichoke, H. Schroeder, R. Gerzer and J.-P. Stasch, “Purified soluble guanylyl cyclase expressed in a baculovirus/Sf9 system: Stimulation by YC-1, nitric oxide, and […]”, J. Mol. Med. 77 (1999), 14-23. The haem-free guanylate cyclase is obtained by adding Tween 20 to the sample buffer (0.5% in the final concentration).\n(§2) The activation of sGC by a test substance is reported as n-fold stimulation of the basal activity."}, "[2]": {"biological_target": "T2, Haem-containing sGC (recombinant soluble guanylate cyclase) (Rattus norvegicus, UniProt P20595)", "T2 construct": "made in house; host or cells: Sf9 insect cells (baculovirus)", "T2 sequence (P20595 1-619)": "T1 sequence (P20595 1-619)", "T2 sequence (P19686 1-690 partner)": "T1 sequence (P19686 1-690 partner)", "experiment": "Stimulation of recombinant soluble guanylate cyclase (sGC) in vitro, haem-containing enzyme", "format": "biochemical", "from_the_text": "as §1\nHoenicka, E. M. Becker, H. Apeler, T. Sirichoke, H. Schroeder, R. Gerzer and J.-P. Stasch, “Purified soluble guanylyl cyclase expressed in a baculovirus/Sf9 system: Stimulation by YC-1, nitric oxide, and carbon oxide”, J. Mol. Med. 77 (1999), 14-23. The haem-free guanylate cyclase is obtained by adding Tween 20 to the sample buffer (0.5% in the final concentration).\nas §2"}, "conscious SH rats": {"system": "conscious SH rats", "experiment": "Radiotelemetric measurement of blood pressure and heart rate on conscious SH rats", "format": "in vivo, spontaneously hypertensive rats (SH rats)", "conditions": "oral administration of 0.3 mg/kg", "from_the_text": "B-3. Radiotelemetric Measurement of Blood Pressure and Heart Rate on Conscious SH Rats\nA commercially available telemetry system from Data Sciences International DSI, USA, is employed for the measurements on conscious SH rats described below.\nThe system consists of 3 main components: (1) implantable transmitter, (2) receiver which is linked via a multiplexer to a (3) data acquisition computer. The telemetry system makes it possible to record continuously the blood pressure and heart rate on conscious animals in their usual habitat.\nThe investigations are carried out on adult female spontaneously hypertensive rats (SH rats) with a body weight of >200 g. After transmitter implantation, the experimental animals are housed singly in type 3 Makrolon cages. They have free access to standard feed and water. […]\nThe telemetry measuring unit is configured for 24 animals. Each experiment is recorded under an experiment number.\nEach of the instrumented rats living in the system is assigned a separate receiving antenna (1010 Receiver, DSI). […] The emitted signals can be detected online by a data acquisition system (Dataquest™ A.R.T. for Windows, DSI) and be appropriately processed. […]\nIn the standard procedure, the following are measured for 10-second periods in each case: (1) systolic blood pressure (SBP), (2) diastolic blood pressure (DBP), (3) mean arterial pressure (MAP) and (4) heart rate (HR). […]"}},
  "data": [
    {"smiles": "O=C(O)c1ccc(CCC(/C=C/c2ccccc2OCCCCCc2ccccc2)Cc2ccc(C(=O)O)cc2)cc1", "note": "(racemic) [Example 5, 4-((4E)-3-(4-Carboxybenzyl)-5-{2-[(5-phenylpentyl)oxy]phenyl}pent-4-en-1-yl)benzoic Acid]", "values": [
      {"measurement": "IC50", "setting": "saphenous artery rings", "result": 4.9, "unit": "nM"},
      {"measurement": "Stimulation (n-fold) Haem-free sGC Basal", "setting": "[1]; 0.001 μM Example 5", "result": 19.2, "unit": "n-fold"},
      {"measurement": "Stimulation (n-fold) Haem-free sGC +10 μM ODQ", "setting": "[1]; 0.001 μM Example 5 +10 μM ODQ", "result": 18.4, "unit": "n-fold"},
      {"measurement": "Stimulation (n-fold) Haem-free sGC Basal", "setting": "[1]; 0.01 μM Example 5", "result": 105.8, "unit": "n-fold"},
      {"measurement": "Stimulation (n-fold) Haem-free sGC +10 μM ODQ", "setting": "[1]; 0.01 μM Example 5 +10 μM ODQ", "result": 100.5, "unit": "n-fold"},
      {"measurement": "Stimulation (n-fold) Haem-free sGC Basal", "setting": "[1]; 0.1 μM Example 5", "result": 185.3, "unit": "n-fold"},
      {"measurement": "Stimulation (n-fold) Haem-free sGC +10 μM ODQ", "setting": "[1]; 0.1 μM Example 5 +10 μM ODQ", "result": 170.4, "unit": "n-fold"},
      {"measurement": "Stimulation (n-fold) Haem-free sGC Basal", "setting": "[1]; 1 μM Example 5", "result": 201.2, "unit": "n-fold"},
      {"measurement": "Stimulation (n-fold) Haem-free sGC +10 μM ODQ", "setting": "[1]; 1 μM Example 5 +10 μM ODQ", "result": 189.2, "unit": "n-fold"},
      {"measurement": "Stimulation (n-fold) Haem-free sGC Basal", "setting": "[1]; 10 μM Example 5", "result": 203.1, "unit": "n-fold"},
      {"measurement": "Stimulation (n-fold) Haem-free sGC +10 μM ODQ", "setting": "[1]; 10 μM Example 5 +10 μM ODQ", "result": 180.7, "unit": "n-fold"},
      {"measurement": "Stimulation (n-fold) Haem-containing sGC Basal", "setting": "[2]; 0.001 μM Example 5", "result": 3.5, "unit": "n-fold"},
      {"measurement": "Stimulation (n-fold) Haem-containing sGC +0.1 μM DEA/NO", "setting": "[2]; 0.001 μM Example 5 +0.1 μM DEA/NO", "result": 88.3, "unit": "n-fold"},
      {"measurement": "Stimulation (n-fold) Haem-containing sGC +10 μM ODQ", "setting": "[2]; 0.001 μM Example 5 +10 μM ODQ", "result": 40.3, "unit": "n-fold"},
      {"measurement": "Stimulation (n-fold) Haem-containing sGC Basal", "setting": "[2]; 0.01 μM Example 5", "result": 17.2, "unit": "n-fold"},
      {"measurement": "Stimulation (n-fold) Haem-containing sGC +0.1 μM DEA/NO", "setting": "[2]; 0.01 μM Example 5 +0.1 μM DEA/NO", "result": 102.9, "unit": "n-fold"},
      {"measurement": "Stimulation (n-fold) Haem-containing sGC +10 μM ODQ", "setting": "[2]; 0.01 μM Example 5 +10 μM ODQ", "result": 83.0, "unit": "n-fold"},
      {"measurement": "Stimulation (n-fold) Haem-containing sGC Basal", "setting": "[2]; 0.1 μM Example 5", "result": 35.1, "unit": "n-fold"},
      {"measurement": "Stimulation (n-fold) Haem-containing sGC +0.1 μM DEA/NO", "setting": "[2]; 0.1 μM Example 5 +0.1 μM DEA/NO", "result": 123.1, "unit": "n-fold"},
      {"measurement": "Stimulation (n-fold) Haem-containing sGC +10 μM ODQ", "setting": "[2]; 0.1 μM Example 5 +10 μM ODQ", "result": 149.5, "unit": "n-fold"},
      {"measurement": "Stimulation (n-fold) Haem-containing sGC Basal", "setting": "[2]; 1 μM Example 5", "result": 44.2, "unit": "n-fold"},
      {"measurement": "Stimulation (n-fold) Haem-containing sGC +0.1 μM DEA/NO", "setting": "[2]; 1 μM Example 5 +0.1 μM DEA/NO", "result": 124.1, "unit": "n-fold"},
      {"measurement": "Stimulation (n-fold) Haem-containing sGC +10 μM ODQ", "setting": "[2]; 1 μM Example 5 +10 μM ODQ", "result": 162.1, "unit": "n-fold"},
      {"measurement": "Stimulation (n-fold) Haem-containing sGC Basal", "setting": "[2]; 10 μM Example 5", "result": 59.5, "unit": "n-fold"},
      {"measurement": "Stimulation (n-fold) Haem-containing sGC +0.1 μM DEA/NO", "setting": "[2]; 10 μM Example 5 +0.1 μM DEA/NO", "result": 152.0, "unit": "n-fold"},
      {"measurement": "Stimulation (n-fold) Haem-containing sGC +10 μM ODQ", "setting": "[2]; 10 μM Example 5 +10 μM ODQ", "result": 171.2, "unit": "n-fold"},
      {"measurement": "Synergy of combination with NO donor DEA/NO on sGC stimulation", "setting": "[2]; combination with DEA/NO", "result": "no synergistic effect"}
    ]},
    {"smiles": "CCCCCCOc1ccccc1/C=C/C(CCc1ccc(C(=O)O)cc1)Cc1ccc(C(=O)O)cc1", "note": "(racemic) [Example 20, 4-{(4E)-3-(4-Carboxybenzyl)-5-[2-(hexyloxy)phenyl]pent-4-en-1-yl}benzoic Acid]", "values": [
      {"measurement": "IC50", "setting": "saphenous artery rings; Oryctolagus cuniculus", "result": 0.7, "unit": "nM"},
      {"measurement": "Period of blood pressure reduction", "setting": "conscious SH rats", "result": 11, "unit": "h"},
      {"measurement": "Reduction in blood pressure", "setting": "conscious SH rats", "result": "marked reduction in blood pressure"}
    ]}
  ]
}
